The text below walks through data of US9834542B2, “LXR modulators” (BRISTOL-MYERS SQUIBB COMPANY, priority 2013, dated 2017).

The target in this assay is T1, LXRβ (Homo sapiens, UniProt P55055).
T1 construct: Co-transfection expression plasmids, comprising full-length LXRα (pCMX-h LXRα[…] or LXRβ (pCMX-hLXRβ)); expressed in transfected cells; host or cells: CV-1 African Green Monkey Kidney Cells
T1 sequence (P55055 1-460): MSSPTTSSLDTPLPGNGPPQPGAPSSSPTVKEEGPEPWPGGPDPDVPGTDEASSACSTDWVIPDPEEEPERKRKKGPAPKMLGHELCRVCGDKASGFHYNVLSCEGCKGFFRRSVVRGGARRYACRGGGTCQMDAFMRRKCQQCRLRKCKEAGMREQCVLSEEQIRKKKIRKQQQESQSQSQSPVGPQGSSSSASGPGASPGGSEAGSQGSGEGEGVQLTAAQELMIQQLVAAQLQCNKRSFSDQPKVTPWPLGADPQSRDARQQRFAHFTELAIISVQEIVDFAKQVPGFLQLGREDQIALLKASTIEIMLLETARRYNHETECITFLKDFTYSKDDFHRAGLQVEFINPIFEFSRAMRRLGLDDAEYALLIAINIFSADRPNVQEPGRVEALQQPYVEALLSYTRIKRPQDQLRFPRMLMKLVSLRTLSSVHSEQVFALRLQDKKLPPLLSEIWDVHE
T1 sequence (P19793 1-462 partner): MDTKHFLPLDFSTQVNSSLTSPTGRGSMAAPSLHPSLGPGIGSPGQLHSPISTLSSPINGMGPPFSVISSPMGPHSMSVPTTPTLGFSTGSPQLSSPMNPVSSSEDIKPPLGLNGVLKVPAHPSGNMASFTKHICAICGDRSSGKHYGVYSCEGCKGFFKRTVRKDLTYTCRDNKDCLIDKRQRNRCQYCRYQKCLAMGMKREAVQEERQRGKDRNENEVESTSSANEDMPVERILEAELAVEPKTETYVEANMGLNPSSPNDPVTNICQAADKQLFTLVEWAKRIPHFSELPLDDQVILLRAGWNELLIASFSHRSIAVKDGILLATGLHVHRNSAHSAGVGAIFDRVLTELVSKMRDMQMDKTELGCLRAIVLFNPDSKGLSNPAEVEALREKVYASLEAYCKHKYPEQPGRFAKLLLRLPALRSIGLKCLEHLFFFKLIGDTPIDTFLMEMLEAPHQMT
In words: Co-transfection assay (LXRE luciferase reporter), LXRβ. Type of assay: cell-based. The settings on record: for EC50: CV-1 cells transfected with pCMX-hLXRβ and LXREx1-Tk-Luciferase, 20 hours incubation; for Emax: LXRβ co-transfection, relative to high control 1-(2,4-difluorobenzyl)-2-oxo-6-(4-phenoxyphenyl)-4-(trifluoromethyl)-1,2-dihydropyridine-3-carbonitrile, read-out: % Efficacy. The essentials: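 Cell-based LXRβ agonism measured as LXRE-luciferase induction in transiently transfected CV-1 cells after 20 h treatment. Potency is the curve-fit EC50; efficacy is expressed as percent of a full-agonist control's maximal response.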

In general, EC50 refers to the concentration that produces a half-maximal response. Low readings indicate an effect from little substance, high ones a need for much substance. `Cc1nc(-c2ccccc2C(F)(F)F)c(-c2cc(-c3cc(F)c(CO)c(S(C)(=O)=O)c3)ccc2-n2cc(C(F)(F)F)nc2C)o1` [Example 630, (3-fluoro-3′-(2-methyl-4-(2-(trifluoromethyl)phenyl)oxazol-5-yl)-4′-(2-methyl-4-(triftuoromethyl)-1H-imidazol-1-yl)-5-(methylsulfonyl)-[1,1′-biphenyl]-4-yl)methanol]: the EC50 amounted to 103 nM and the Emax is 30%.
The corresponding values for `Cc1nc(-c2ccccc2OC(F)(F)F)c(-c2cc(-c3cccc(S(C)(=O)=O)c3)ccc2-n2cc(C(F)(F)F)nc2C)o1` [Example 631, 2-methyl-5-(4-(2-methyl-4-(trifluoromethyl)-1H-imidazol-1-yl)-3′-(methylsulfonyl)-[1,1′-biphenyl]-3-yl)-4-(2-(trifluoromethoxy)phenyl)oxazole] are 216 nM and 43%.
The corresponding values for `Cc1nc(-c2ccccc2OC(F)(F)F)c(-c2cc(-c3cc(F)c(CO)c(S(C)(=O)=O)c3)ccc2-n2cc(C(F)(F)F)nc2C)o1` [Example 632, (3-fluoro-3′-(2-methyl-4-(2-(trifluoromethoxy)phenyl)oxazol-5-yl)-4′-(2-methyl-4-(trifluoromethyl)-1H-imidazol-1-yl)-5-(methylsulfonyl)-[1,1′-biphenyl]-4-yl)methanol] are 34 nM and 41%.
The corresponding values for `Cc1nc(C(F)(F)F)cn1-c1ccc(-c2cc(F)c(CO)c(S(C)(=O)=O)c2)cc1-c1ocnc1Cc1ccc(Cl)cc1` [Example 633, (3′-(4-(4-chlorobenzyl)oxazol-5-yl)-3-fluoro-4′-(2-methyl-4-(trifluoromethyl)-1H-imidazol-1-yl)-5-(methylsulfonyl)-[1,1′-biphenyl]-4-yl)methanol] are 161 nM and 66%.
As to `Cc1nc(C(F)(F)F)cn1-c1ccc(-c2cccc(S(C)(=O)=O)c2)cc1-c1ocnc1Cc1ccc(Cl)cc1` [Example 634, 4-(4-chlorobenzyl)-5-(4-(2-methyl-4-(trifluoromethyl)-1H-imidazol-1-yl)-3′-(methylsulfonyl)-[1,1′-biphenyl]-3-yl)oxazole], the EC50 worked out at 249 nM and the Emax is 68%.
The like results for `Cc1nc(C(F)(F)F)cn1-c1ccc(-c2ccc(CO)c(S(C)(=O)=O)c2)cc1-c1ocnc1Cc1ccc(Cl)cc1` [Example 635, (3′-(4-(4-chlorobenzyl)oxazol-5-yl)-4′-(2-methyl-4-(trifluoromethyl)-1H-imidazol-1-yl)-3-(methylsulfonyl)-[1,1′-biphenyl]-4-yl)methanol] were, in that order, 229 nM and 58%.
The like results for `Cc1nc(C(F)(F)F)cn1-c1ccc(-c2cccc(S(C)(=O)=O)c2)cc1-c1ocnc1Cc1ccc(OC(F)(F)F)cc1` [Example 636, 5-(4-(2-methyl-4-(trifluoromethyl)-1H-imidazol-1-yl)-3′-(methylsulfonyl)-[1,1′-biphenyl]-3-yl)-4-(4-(trifluoromethoxy)benzyl)oxazole] were, in that order, 702 nM and 41%.
The like results for `COc1cc(OC(F)(F)F)ccc1-c1nc(C)oc1-c1cc(-c2cccc(S(C)(=O)=O)c2)ccc1-n1cc(C(F)(F)F)nc1C` [Example 637, 4-(2-methoxy-4-(trifluoromethoxy)phenyl)-2-methyl-5-(4-(2-methyl-4-(trifluoromethyl)-1H-imidazol-1-yl)-3′-(methylsulfonyl)-[1,1′-biphenyl]-3-yl)oxazole] were, in that order, 579 nM and 40%.
As for `Cc1nc(C(F)(F)F)cn1-c1ccc(-c2cc(F)c(CO)c(S(C)(=O)=O)c2)cc1-c1nc(C(F)(F)F)cn1-c1ccc2c(c1)OC(F)(F)O2` [Example 638, (3′-(1-(2,2-difluorobenzo[d][1,3]dioxol-5-yl)-4-(trifluoromethyl)-1H-imidazol-2-yl)-3-fluoro-4′-(2-methyl-4-(trifluoromethyl)-1H-imidazol-1-yl)-5-(methylsulfonyl)biphenyl-4-yl)methanol], it took 143 nM to reach a half-maximal effect (EC50) and the Emax came to 79%.
The like results for `Cc1nc(C(F)(F)F)cn1-c1ccc(-c2cc(F)c(CO)c(S(C)(=O)=O)c2)cc1-c1nc(C2CC2)cn1-c1ccc2c(c1)OC(F)(F)O2` [Example 639, (3′-(4-cyclopropyl-1-(2,2-difluorobenzo[d][1,3]dioxol-5-yl)-1H-imidazol-2-yl)-3-fluoro-4′-(2-methyl-4-(trifluoromethyl)-1H-imidazol-1-yl)-5-(methylsulfonyl)biphenyl-4-yl)methanol] were, in that order, 129 nM and 81%.
The like results for `Cc1nc(C(F)(F)F)cn1-c1ccc(-c2cccc(S(C)(=O)=O)c2)cc1-c1nc(C(F)(F)F)cn1-c1ccc2c(c1)OC(F)(F)O2` [Example 640, 1-(2,2-difluorobenzo[d][1,3]dioxol-5-yl)-2-(4-(2-methyl-4-(trifluoromethyl)-1H-imidazol-1-yl)-3′-(methylsulfonyl)biphenyl-3-yl)-4-(trifluoromethyl)-1H-imidazole] were, in that order, 218 nM and 61%.
The corresponding values for `Cc1nc(C(F)(F)F)cn1-c1ccc(-c2cc(F)cc(S(C)(=O)=O)c2)cc1-c1nc(C(F)(F)F)cn1-c1ccc2c(c1)OC(F)(F)O2` [Example 641, 1-(2,2-difluorobenzo[d][1,3]dioxol-5-yl)-2-(3′-fluoro-4-(2-methyl-4-(trifluoromethyl)-1H-imidazol-1-yl)-5′-(methylsulfonyl)biphenyl-3-yl)-4-(trifluoromethyl)-1H-imidazole] are 721 nM and 59%.
Turning to `Cc1nc(C(F)(F)F)cn1-c1ccc(-c2cccc(S(C)(=O)=O)c2)cc1-c1nc(C(F)(F)F)cn1-c1ccc(Cl)nc1` [Example 642, 2-chloro-5-(2-(4-(2-methyl-4-(trifluoromethyl)-1H-imidazol-1-yl)-3′-(methylsulfonyl)biphenyl-3-yl)-4-(trifluoromethyl)-1H-imidazol-1-yl)pyridine], the EC50 was 1150 nM and the Emax is 32%.
The corresponding values for `Cc1nc(C(F)(F)F)cn1-c1ccc(-c2cccc(S(C)(=O)=O)c2)cc1-c1nc(C2CC2)cn1-c1ccc2c(c1)OC(F)(F)O2` [Example 643, 4-cyclopropyl-1-(2,2-difluorobenzo[d][1,3]dioxol-5-yl)-2-(4-(2-methyl-4-(trifluoromethyl)-1H-imidazol-1-yl)-3′-(methylsulfonyl)biphenyl-3-yl)-1H-imidazole] are 341 nM and 84%.
On to `Cc1nc(C(F)(F)F)cn1-c1ccc(-c2cccc(S(C)(=O)=O)c2)cc1-c1nc(C(F)(F)F)cn1-c1ccc(Cl)cc1` [Example 644, 1-(4-chlorophenyl)-2-(4-(2-methyl-4-(trifluoromethyl)-1H-imidazol-1-yl)-3′-(methylsulfonyl)biphenyl-3-yl)-4-(trifluoromethyl)-1H-imidazole], for which a half-maximal response (EC50) required 408 nM and the Emax is 37%.
The like results for `Cc1nc(C(F)(F)F)cn1-c1ccc(-c2cc(F)c(CO)c(S(C)(=O)=O)c2)cc1-c1nc(C(F)(F)F)cn1-c1ccc(Cl)cc1` [Example 645, (3′-(1-(4-chlorophenyl)-4-(trifluotomethyl)-1H-imidazol-2-yl)-3-fluoro-4′-(2-methyl-4-(trifluoromethyl)-1H-imidazol-1-yl)-5-(methylsulfonyl)biphenyl-4-yl)methanol] were, in that order, 144 nM and 32%.
For `Cc1nc(C(F)(F)F)cn1-c1ccc(-c2cccc(S(C)(=O)=O)c2)cc1-c1nc(C2CC2)cn1-c1ccc(Cl)cc1` [Example 646, 1-(4-chlorophenyl)-4-cyclopropyl-2-(4-(2-methyl-4-(trifluoromethyl)-1H-imidazol-1-yl)-3′-(methylsulfonyl)-[1,1′-biphenyl]-3-yl)-1H-imidazole], the EC50 worked out at 572 nM and the Emax worked out at 44%.
The corresponding values for `Cc1nc(C(F)(F)F)cn1-c1ccc(-c2cc(F)c(CO)c(S(C)(=O)=O)c2)cc1-c1nc(C2CC2)cn1-c1ccc(Cl)cc1` [Example 647, (3′-(1-(4-chlorophenyl)-4-cyclopropyl-1H-imidazol-2-yl)-3-fluoro-4′-(2-methyl-4-(trifluoromethyl)-1H-imidazol-1-yl)-5-(methylsulfonyl)-[1,1′-biphenyl]-4-yl)methanol] are 350 nM and 49%.
